Laboratory results published in patent US20150141336A1, “Pancreatic Peptide Compounds and Use” (Novo Nordisk A/S, priority 2012, published 2015).
Numbered stars: 1 amine (or outer) side, 2 acyl side, 3 side chain; on linkers, the order of the positions; unused ones are H or OH. Side chains are listed from the residue outwards. Peptide text beside a SMILES is read from it. * marks the point of attachment. C18 diacid = O=C(O)CCCCCCCCCCCCCCCCC(=O)*; γGlu = O=C(O)[C@H](CCC(=O)[*:2])N[*:1]; AEEA = NCCOCCOCC(=O)O

Test: Assay (II) PK i.v. minipig, in vivo half-life
Parameters: species or system Göttingen mini-pigs
Settings: male, Göttingen, minipig, iv, Half-life minipig, Assay (II)
Method in brief: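 Male Göttingen mini-pigs (18–22 kg, n=5) received 6 nmol/kg i.v. via central catheter, formulated in 50 mM K2HPO4, 0.05% tween 80, pH 8.0. EDTA plasma sampled pre-dose to 240 h, quantified by TFC/LC/MS/MS (MRM, range 1-2000 nmol/l); half-life from non-compartmental analysis per animal.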

SMILES | half-life [h]
CC[C@H](C)[C@H](NC(=O)[C@H](Cc1ccc(O)cc1)NC(=O)[C@H](CCCNC(=N)N)NC(=O)[C@H](CCCNC(=N)N)NC(=O)[C@H](CC(C)C)NC(=O)[C@H](CC(=O)O)NC(=O)[C@H](C)NC(=O)[C@H](C)NC(=O)[C@H](CCCCNC(=O)COCCOCCNC(=O)COCCOCCNC(=O)CC[C@H](NC(=O)CCCCCCCCCCCCCCCCC(=O)O)C(=O)O)NC(=O)[C@H](CCC(N)=O)NC(=O)[C@H](C)NC(=O)[C@H](CCSC)NC(=O)[C@H](CCC(N)=O)NC(=O)[C@H](CCC(=O)O)NC(=O)[C@@H]1CCCN1C(=O)[C@@H](NC(=O)[C@H](C)NC(=O)[C@H](CC(N)=O)NC(=O)[C@H](CC(=O)O)NC(=O)CNC(=O)[C@@H]1CCCN1C(=O)[C@H](Cc1ccc(O)cc1)NC(=O)[C@@H](NC(=O)[C@@H]1CCCN1C(=O)[C@H](CCC(=O)O)NC(=O)[C@@H](N)CC(C)C)C(C)C)[C@@H](C)O)C(=O)N[C@@H](CC(N)=O)C(=O)N[C@@H](CCSC)C(=O)N[C@@H](CC(C)C)C(=O)N[C@H](C(=O)N[C@@H](CCCNC(=N)N)C(=O)N1CCC[C@H]1C(=O)N[C@@H](CCCNC(=N)N)C(=O)N[C@@H](Cc1ccc(O)cc1)C(N)=O)[C@@H](C)O [Compound AV] (H-LEPVYPGDNATPEQMAQK([AEEA-AEEA-γGlu-C18 diacid])AADLRRYINMLTRPRY-NH2; N-terminus and C-terminus assumed) | 28
CC[C@H](C)[C@H](NC(=O)[C@H](Cc1ccc(O)cc1)NC(=O)[C@H](CCCNC(=N)N)NC(=O)[C@H](CCCNC(=N)N)NC(=O)[C@H](CC(C)C)NC(=O)[C@H](CC(=O)O)NC(=O)[C@H](C)NC(=O)[C@H](C)NC(=O)[C@H](Cc1ccc(O)cc1)NC(=O)[C@H](CCC(N)=O)NC(=O)[C@H](C)NC(=O)[C@H](CCSC)NC(=O)[C@H](CCC(N)=O)NC(=O)[C@H](CCC(=O)O)NC(=O)[C@@H]1CCCN1C(=O)[C@@H](NC(=O)[C@H](C)NC(=O)[C@H](CC(N)=O)NC(=O)[C@H](CC(=O)O)NC(=O)CNC(=O)[C@@H]1CCCN1C(=O)[C@H](Cc1ccc(O)cc1)NC(=O)[C@@H](NC(=O)[C@@H]1CCCN1C(=O)[C@H](CCCCNC(=O)COCCOCCNC(=O)COCCOCCNC(=O)CC[C@H](NC(=O)CCCCCCCCCCCCCCCCC(=O)O)C(=O)O)NC(=O)[C@@H](N)CC(C)C)C(C)C)[C@@H](C)O)C(=O)N[C@@H](CC(N)=O)C(=O)N[C@@H](CCSC)C(=O)N[C@@H](CC(C)C)C(=O)N[C@H](C(=O)N[C@@H](CCCNC(=N)N)C(=O)N1CCC[C@H]1C(=O)N[C@@H](CCCNC(=N)N)C(=O)N[C@@H](Cc1ccc(O)cc1)C(N)=O)[C@@H](C)O [BL] | 52
CC[C@H](C)[C@H](NC(=O)[C@H](Cc1ccc(O)cc1)NC(=O)[C@H](CCCNC(=N)N)NC(=O)[C@H](CCCNC(=N)N)NC(=O)[C@H](CC(C)C)NC(=O)[C@H](CC(=O)O)NC(=O)[C@H](C)NC(=O)[C@H](C)NC(=O)[C@H](Cc1ccc(O)cc1)NC(=O)[C@H](CCC(N)=O)NC(=O)[C@H](C)NC(=O)[C@H](CCSC)NC(=O)[C@H](CCC(N)=O)NC(=O)[C@H](CCC(=O)O)NC(=O)[C@@H]1CCCN1C(=O)[C@@H](NC(=O)[C@H](C)NC(=O)[C@H](CC(N)=O)NC(=O)[C@H](CC(=O)O)NC(=O)CNC(=O)[C@@H]1CCCN1C(=O)[C@H](Cc1ccc(O)cc1)NC(=O)[C@@H](NC(=O)[C@H](CCCCNC(=O)COCCOCCNC(=O)COCCOCCNC(=O)CC[C@H](NC(=O)CCCCCCCCCCCCCCCCC(=O)O)C(=O)O)NC(=O)[C@H](CCC(=O)O)NC(=O)[C@H](CC(C)C)NC(=O)[C@@H]1CCCN1)C(C)C)[C@@H](C)O)C(=O)N[C@@H](CC(N)=O)C(=O)N[C@@H](CCSC)C(=O)N[C@@H](CC(C)C)C(=O)N[C@H](C(=O)N[C@@H](CCCNC(=N)N)C(=O)N1CCC[C@H]1C(=O)N[C@@H](CCCNC(=N)N)C(=O)N[C@@H](Cc1ccc(O)cc1)C(N)=O)[C@@H](C)O [Compound AC] | 11
CC[C@H](C)[C@H](NC(=O)[C@H](Cc1ccc(O)cc1)NC(=O)[C@H](CCCNC(=N)N)NC(=O)[C@H](CCCNC(=N)N)NC(=O)[C@H](CC(C)C)NC(=O)[C@H](CC(=O)O)NC(=O)[C@H](C)NC(=O)[C@H](C)NC(=O)[C@H](Cc1ccc(O)cc1)NC(=O)[C@H](CCC(N)=O)NC(=O)[C@H](C)NC(=O)[C@H](CCSC)NC(=O)[C@H](CCC(N)=O)NC(=O)[C@H](CCC(=O)O)NC(=O)[C@@H]1CCCN1C(=O)[C@@H](NC(=O)[C@H](C)NC(=O)[C@H](CC(N)=O)NC(=O)[C@H](CC(=O)O)NC(=O)CNC(=O)[C@@H]1CCCN1C(=O)[C@H](Cc1ccc(O)cc1)NC(=O)[C@@H](NC(=O)[C@@H]1CCCN1C(=O)[C@H](CCC(=O)O)NC(=O)[C@H](CC(C)C)NC(=O)[C@@H]1CCCN1)C(C)C)[C@@H](C)O)C(=O)N[C@@H](CC(N)=O)C(=O)N[C@@H](CCSC)C(=O)N[C@@H](CC(C)C)C(=O)N[C@@H](CCCCNC(=O)COCCOCCNC(=O)COCCOCCNC(=O)CC[C@H](NC(=O)CCCCCCCCCCCCCCCCC(=O)O)C(=O)O)C(=O)N[C@@H](CCCNC(=N)N)C(=O)N1CCC[C@H]1C(=O)N[C@@H](CCCNC(=N)N)C(=O)N[C@@H](Cc1ccc(O)cc1)C(N)=O [Compound B] (H-PLEPVYPGDNATPEQMAQYAADLRRYINMLK([AEEA-AEEA-γGlu-C18 diacid])RPRY-NH2; N-terminus and C-terminus assumed) | 93
CC[C@H](C)[C@H](NC(=O)[C@H](Cc1ccc(O)cc1)NC(=O)[C@H](CCCNC(=N)N)NC(=O)[C@H](CCCNC(=N)N)NC(=O)[C@H](CC(C)C)NC(=O)[C@H](CC(=O)O)NC(=O)[C@H](C)NC(=O)[C@H](CCCCNC(=O)COCCOCCNC(=O)COCCOCCNC(=O)CC[C@H](NC(=O)CCCCCCCCCCCCCCCCC(=O)O)C(=O)O)NC(=O)[C@H](Cc1ccc(O)cc1)NC(=O)[C@H](CCC(N)=O)NC(=O)[C@H](C)NC(=O)[C@H](CCSC)NC(=O)[C@H](CCC(N)=O)NC(=O)[C@H](CCC(=O)O)NC(=O)[C@@H]1CCCN1C(=O)[C@@H](NC(=O)[C@H](C)NC(=O)[C@H](CC(N)=O)NC(=O)[C@H](CC(=O)O)NC(=O)CNC(=O)[C@@H]1CCCN1C(=O)[C@H](Cc1ccc(O)cc1)NC(=O)[C@@H](NC(=O)[C@@H]1CCCN1C(=O)[C@H](CCC(=O)O)NC(=O)[C@H](CC(C)C)NC(=O)[C@@H]1CCCN1)C(C)C)[C@@H](C)O)C(=O)N[C@@H](CC(N)=O)C(=O)N[C@@H](CCSC)C(=O)N[C@@H](CC(C)C)C(=O)N[C@H](C(=O)N[C@@H](CCCNC(=N)N)C(=O)N1CCC[C@H]1C(=O)N[C@@H](CCCNC(=N)N)C(=O)N[C@@H](Cc1ccc(O)cc1)C(N)=O)[C@@H](C)O [Compound M] (H-PLEPVYPGDNATPEQMAQYK([AEEA-AEEA-γGlu-C18 diacid])ADLRRYINMLTRPRY-NH2; N-terminus and C-terminus assumed) | 77

Now from value to compound:

half-life [h] | SMILES
60 | CC[C@H](C)[C@H](NC(=O)[C@H](Cc1ccc(O)cc1)NC(=O)[C@H](CCCNC(=N)N)NC(=O)[C@H](CCCNC(=N)N)NC(=O)[C@H](CC(C)C)NC(=O)[C@H](CC(=O)O)NC(=O)[C@H](C)NC(=O)[C@H](C)NC(=O)[C@H](Cc1ccc(O)cc1)NC(=O)[C@H](CCCCNC(=O)COCCOCCNC(=O)COCCOCCNC(=O)CC[C@H](NC(=O)CCCCCCCCCCCCCCCCC(=O)O)C(=O)O)NC(=O)[C@H](C)NC(=O)[C@H](CCSC)NC(=O)[C@H](CCC(N)=O)NC(=O)[C@H](CCC(=O)O)NC(=O)[C@@H]1CCCN1C(=O)[C@@H](NC(=O)[C@H](C)NC(=O)[C@H](CC(N)=O)NC(=O)[C@H](CC(=O)O)NC(=O)CNC(=O)[C@@H]1CCCN1C(=O)[C@H](Cc1ccc(O)cc1)NC(=O)[C@@H](NC(=O)[C@@H]1CCCN1C(=O)[C@H](CCC(=O)O)NC(=O)[C@H](CC(C)C)NC(=O)[C@@H]1CCCN1)C(C)C)[C@@H](C)O)C(=O)N[C@@H](CC(N)=O)C(=O)N[C@@H](CCSC)C(=O)N[C@@H](CC(C)C)C(=O)N[C@H](C(=O)N[C@@H](CCCNC(=N)N)C(=O)N1CCC[C@H]1C(=O)N[C@@H](CCCNC(=N)N)C(=O)N[C@@H](Cc1ccc(O)cc1)C(N)=O)[C@@H](C)O [Compound O] (H-PLEPVYPGDNATPEQMAK([AEEA-AEEA-γGlu-C18 diacid])YAADLRRYINMLTRPRY-NH2; N-terminus and C-terminus assumed)
36 | CC[C@H](C)[C@H](NC(=O)[C@H](Cc1ccc(O)cc1)NC(=O)[C@H](CCCNC(=N)N)NC(=O)[C@H](CCCNC(=N)N)NC(=O)[C@H](CC(C)C)NC(=O)[C@H](CC(=O)O)NC(=O)[C@H](C)NC(=O)[C@H](C)NC(=O)[C@H](Cc1ccc(O)cc1)NC(=O)[C@H](CCC(N)=O)NC(=O)[C@H](C)NC(=O)[C@H](CCSC)NC(=O)[C@H](CCC(N)=O)NC(=O)[C@H](CCC(=O)O)NC(=O)[C@@H]1CCCN1C(=O)[C@@H](NC(=O)[C@H](CCCCNC(=O)COCCOCCNC(=O)COCCOCCNC(=O)CC[C@H](NC(=O)CCCCCCCCCCCCCCCCC(=O)O)C(=O)O)NC(=O)[C@H](CC(N)=O)NC(=O)[C@H](CC(=O)O)NC(=O)CNC(=O)[C@@H]1CCCN1C(=O)[C@H](Cc1ccc(O)cc1)NC(=O)[C@@H](NC(=O)[C@@H]1CCCN1C(=O)[C@H](CCC(=O)O)NC(=O)[C@H](CC(C)C)NC(=O)[C@@H]1CCCN1)C(C)C)[C@@H](C)O)C(=O)N[C@@H](CC(N)=O)C(=O)N[C@@H](CCSC)C(=O)N[C@@H](CC(C)C)C(=O)N[C@H](C(=O)N[C@@H](CCCNC(=N)N)C(=O)N1CCC[C@H]1C(=O)N[C@@H](CCCNC(=N)N)C(=O)N[C@@H](Cc1ccc(O)cc1)C(N)=O)[C@@H](C)O [Compound V]
